{"source": "patent US12485092B2", "about": "“Composition for promoting drug release of drug-delivery liposomes” (INDUSTRY ACADEMY COOPERATION FOUNDATION OF SEJONG UNIVERSITY, priority 2022, dated 2025)", "key": {"[1]": {"tested_on": "HCT-116 colorectal cancer cells"}, "in vivo": {"test": "in vivo", "settings": "SD, rat, iv, 5 mg/kg", "experimental": "Eight week-old SD rats were randomly divided into three groups (doxorubicin, CAELYX and CAELYX+omega liposome), respectively. Each group was anesthetized with 100 mg/kg of ketamine, followed by inserting polyethylene tubes into the jugular vein and the carotid for drug injection and blood gathering, respectively. To the three groups, the doxorubicin solution, CAELYX and a CAELYX+omega liposome mixture were intravenously administered through the jugular vein at a 5 mg/kg doxorubicin dose. Thereafter, 120 μL of blood was collected at 1, 5, 15, 30, 60, 120, 180, 240, 360, 480, 720, 960, 1,440, 2,160 and 2,880 minutes, respectively, and centrifuged, followed by gathering 50 μl of plasma to analyze a doxorubicin concentration through HPLC. In order to prevent blood coagulation after blood gathering, 0.3 mL of physiological saline for injection containing 201U of heparin was flushed. In addition, after drug administration, urine was collected up to 24 hours and measured for volume.\nFor quantification of doxorubicin concentration in plasma and urine, 100 μL of acetonitrile and 15 μL of 15 μg/mL daunorubicin (internal standard material) were added and well mixed in 50 μL of the plasma or urine, and then centrifuged at 13,000 rpm for 5 minutes to remove the plasma protein. Thereafter, 100 μL of the supernatant was introduced into HPLC column (reversed phase column, particle size 5 inner diameter 4.6 mm, length 250 mm). Mobile phase composed of 68:32 (v/v) mixture of water (pH 2.60) and acetonitrile was used at a flow rate of 1 mL/min. For detection of drugs, a fluorescence detector was used wherein excitation (Ex) wavelength is 475 nm and emission (Em) wavelength is 555 nm.\nThe plasma concentration of doxorubicin quantified by HPLC assay was used to calculate pharmacokinetic parameters using WinNonlin program. For statistical analysis of the pharmacokinetic parameters among the above three groups, Tukey's test was carried out after performing analysis of variance (ANOVA), wherein P<0.05 is considered to be statistically significant."}}}
{"smiles": "COc1cccc2c1C(=O)c1c(O)c3c(c(O)c1C2=O)C[C@@](O)(C(=O)CO)C[C@@H]3O[C@H]1C[C@H](N)[C@H](O)[C@H](C)O1", "note": "[Doxorubicin solution, doxorubicin]", "values": [{"measurement": "IC50", "setting": "[1]", "result": 265, "unit": "nM"}, {"measurement": "AUC", "setting": "in vivo", "result": 9820, "unit": "ng·h/mL"}, {"measurement": "MRT", "setting": "in vivo", "result": 1.18, "unit": "h"}, {"measurement": "clearance", "setting": "in vivo", "result": "8.91 ± 2.06", "unit": "mL/min/kg"}, {"measurement": "half-life", "setting": "in vivo", "result": 1.97, "unit": "h"}, {"measurement": "IC50", "setting": "B16-F10 melanoma cells", "result": 191, "unit": "nM"}]}
